Measured values published in ChEMBL document CHEMBL1201862, “PubChem BioAssay data set” (2004).
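How tested: cells in 96-well plates exposed to compound for 48 hours at five concentrations. GI50 = concentration required for 50% inhibition of growth.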 The source made the active and inactive calls. Cut-off read from the data, not from the text of the source: active = GI50 up to about 1.1 µM and inactive = higher.

How the values were obtained:
Assay in all cases: inhibition of tumour cell growth, NCI panel, 48 h
786-0 = system: 786-0
A498 = system: A498
A549 = system: A549
ACHN = system: ACHN
CAKI-1 = system: CAKI-1
CCRF-CEM = system: CCRF-CEM
COLO 205 = system: COLO 205
DLD-1 = system: DLD-1
DMS-273 = system: DMS-273
EKVX = system: EKVX
HCC 2998 = system: HCC 2998
HCT-15 = system: HCT-15
HL-60 = system: HL-60
HOP-62 = system: HOP-62
HOP-92 = system: HOP-92
HT-29 = system: HT-29
IGROV-1 = system: IGROV-1
K562 = system: K562
KM-20L2 = system: KM-20L2
KM12 = system: KM12
LOX IMVI = system: LOX IMVI
LXFL 529 = system: LXFL 529
M14 = system: M14
M19-MEL = system: M19-MEL
MOLT-4 = system: MOLT-4
Malme-3M = system: Malme-3M
NCI-H226 = system: NCI-H226
NCI-H23 = system: NCI-H23
NCI-H460 = system: NCI-H460
NCI-H522 = system: NCI-H522
OVCAR-3 = system: OVCAR-3
OVCAR-4 = system: OVCAR-4
OVCAR-5 = system: OVCAR-5
OVCAR-8 = system: OVCAR-8
RPMI-8226 = system: RPMI-8226
RXF 393 = system: RXF 393
SF-268 = system: SF-268
SF-295 = system: SF-295
SF-539 = system: SF-539
SK-MEL-28 = system: SK-MEL-28
SK-MEL-2 = system: SK-MEL-2
SK-MEL-5 = system: SK-MEL-5
SK-OV-3 = system: SK-OV-3
SNB-19 = system: SNB-19
SNB-75 = system: SNB-75
SNB-78 = system: SNB-78
SR = system: SR
SW-620 = system: SW-620
TK-10 = system: TK-10
U-251 = system: U-251
UACC-257 = system: UACC-257
UACC-62 = system: UACC-62
UO-31 = system: UO-31
XF498 = system: XF498
DMS-114 = system: DMS-114
SN12C = system: SN12C
BT-549 = system: BT-549
DU-145 = system: DU-145
HCT-116 = system: HCT-116
Hs-578T = system: Hs-578T
MCF7 = system: MCF7
MDA-MB-231 = system: MDA-MB-231
MDA-MB-435 = system: MDA-MB-435
MDA-N = system: MDA-N
NCI/ADR-RES = system: NCI/ADR-RES
PC-3 = system: PC-3
T47D = system: T47D

COc1cc2c(cc1OC)C(C(CBr)CBr)N(C1CCCC1)CC2 (stereo not drawn)
GI50 (786-0): > 100 µM (inactive) | GI50 (A498): > 100 µM (inactive) | GI50 (A549): > 100 µM (inactive) | GI50 (ACHN): > 100 µM (inactive) | GI50 (CAKI-1): > 100 µM (inactive) | GI50 (CCRF-CEM): > 100 µM (inactive) | GI50 (COLO 205): > 100 µM (inactive) | GI50 (DLD-1): > 100 µM (inactive) | GI50 (DMS-273): > 100 µM (inactive) | GI50 (EKVX): > 100 µM (inactive) | GI50 (HCC 2998): > 100 µM (inactive) | GI50 (HCT-15): > 100 µM | GI50 (HL-60): > 100 µM (inactive) | GI50 (HOP-62): > 100 µM (inactive) | GI50 (HOP-92): 41.3 µM (inactive) | GI50 (HT-29): > 100 µM (inactive) | GI50 (IGROV-1): > 100 µM (inactive) | GI50 (K562): > 100 µM (inactive) | GI50 (KM-20L2): 1.46 µM (inactive) | GI50 (KM12): > 100 µM (inactive) | GI50 (LOX IMVI): > 100 µM (inactive) | GI50 (LXFL 529): > 100 µM (inactive) | GI50 (M14): > 100 µM (inactive) | GI50 (M19-MEL): > 100 µM (inactive) | GI50 (MOLT-4): > 100 µM (inactive) | GI50 (Malme-3M): > 100 µM (inactive) | GI50 (NCI-H226): 82.6 µM (inactive) | GI50 (NCI-H23): > 100 µM (inactive) | GI50 (NCI-H460): > 100 µM (inactive) | GI50 (NCI-H522): > 100 µM (inactive) | GI50 (OVCAR-3): > 100 µM (inactive) | GI50 (OVCAR-4): > 100 µM (inactive) | GI50 (OVCAR-5): > 100 µM (inactive) | GI50 (OVCAR-8): > 100 µM (inactive) | GI50 (RPMI-8226): > 100 µM (inactive) | GI50 (RXF 393): > 100 µM (inactive) | GI50 (SF-268): > 100 µM (inactive) | GI50 (SF-295): > 100 µM (inactive) | GI50 (SF-539): > 100 µM (inactive) | GI50 (SK-MEL-28): > 100 µM (inactive) | GI50 (SK-MEL-2): > 100 µM (inactive) | GI50 (SK-MEL-5): > 100 µM (inactive) | GI50 (SK-OV-3): > 100 µM (inactive) | GI50 (SNB-19): > 100 µM (inactive) | GI50 (SNB-75): > 100 µM (inactive) | GI50 (SNB-78): > 10 µM (inactive) | GI50 (SR): > 100 µM (inactive) | GI50 (SW-620): > 100 µM (inactive) | GI50 (TK-10): > 100 µM (inactive) | GI50 (U-251): > 100 µM (inactive) | GI50 (UACC-257): > 100 µM (inactive) | GI50 (UACC-62): > 100 µM (inactive) | GI50 (UO-31): > 100 µM (inactive) | GI50 (XF498): > 100 µM (inactive)

Cc1cc(C)[n+]2c(c1)C=CC2.[O-][Cl+3]([O-])([O-])[O-]
GI50 (786-0): 37.2 µM (inactive) | GI50 (A549): 18.1 µM (inactive) | GI50 (ACHN): 17.7 µM (inactive) | GI50 (CAKI-1): 15.6 µM (inactive) | GI50 (COLO 205): 15 µM (inactive) | GI50 (DLD-1): 10.7 µM (inactive) | GI50 (DMS-114): 5.5 µM (inactive) | GI50 (DMS-273): 0.459 µM (active) | GI50 (EKVX): 21.6 µM (inactive) | GI50 (HCC 2998): > 100 µM (inactive) | GI50 (HL-60): 2.94 µM (inactive) | GI50 (HOP-62): 57.1 µM (inactive) | GI50 (HOP-92): 8.57 µM (inactive) | GI50 (HT-29): 15.9 µM (inactive) | GI50 (KM-20L2): 21.3 µM (inactive) | GI50 (KM12): 27.6 µM (inactive) | GI50 (LOX IMVI): 17.1 µM (inactive) | GI50 (LXFL 529): 16.5 µM (inactive) | GI50 (M14): 8.11 µM (inactive) | GI50 (M19-MEL): 21.2 µM (inactive) | GI50 (Malme-3M): 1.65 µM (inactive) | GI50 (NCI-H226): 15.6 µM (inactive) | GI50 (NCI-H23): 15.7 µM (inactive) | GI50 (NCI-H460): 34.8 µM (inactive) | GI50 (NCI-H522): 3.21 µM (inactive) | GI50 (OVCAR-3): 11.7 µM (inactive) | GI50 (OVCAR-4): 49.9 µM (inactive) | GI50 (OVCAR-5): > 100 µM (inactive) | GI50 (OVCAR-8): 28.6 µM (inactive) | GI50 (RXF 393): 2.89 µM (inactive) | GI50 (SF-268): 64 µM (inactive) | GI50 (SF-295): 25.1 µM (inactive) | GI50 (SF-539): 22.8 µM (inactive) | GI50 (SK-MEL-28): 12.4 µM (inactive) | GI50 (SK-MEL-2): 11 µM (inactive) | GI50 (SK-MEL-5): 13.9 µM (inactive) | GI50 (SN12C): 31.2 µM (inactive) | GI50 (SNB-19): 42.7 µM (inactive) | GI50 (SNB-75): 6.05 µM (inactive) | GI50 (SNB-78): 21.2 µM (inactive) | GI50 (SW-620): 4.18 µM (inactive) | GI50 (TK-10): 92 µM (inactive) | GI50 (U-251): 29.7 µM (inactive) | GI50 (UACC-257): 11.5 µM (inactive) | GI50 (UO-31): 39.4 µM (inactive)

Cc1cc2c(cc1-c1cc3c(cc1C)C(C(C)C)=C(O)C(=O)/C3=C\NCC1CCCN3CCCCC13)/C(=C/NCC1CCCN3CCCCC13)C(=O)C(O)=C2C(C)C (stereo not drawn)
GI50 (786-0): 3.02 µM (inactive) | GI50 (A498): 23.1 µM (inactive) | GI50 (A549): 4.93 µM (inactive) | GI50 (ACHN): 3.81 µM (inactive) | GI50 (BT-549): 15.9 µM (inactive) | GI50 (CAKI-1): 3.81 µM (inactive) | GI50 (CCRF-CEM): 2.83 µM (inactive) | GI50 (COLO 205): 3.47 µM (inactive) | GI50 (DU-145): 11 µM (inactive) | GI50 (EKVX): 7.98 µM (inactive) | GI50 (HCC 2998): 17.5 µM (inactive) | GI50 (HCT-116): 4.72 µM (inactive) | GI50 (HCT-15): 5.33 µM | GI50 (HL-60): 2.97 µM (inactive) | GI50 (HOP-62): 4.27 µM (inactive) | GI50 (HOP-92): 15.8 µM (inactive) | GI50 (HT-29): 2.47 µM (inactive) | GI50 (Hs-578T): 10.2 µM (inactive) | GI50 (IGROV-1): 5.97 µM (inactive) | GI50 (K562): 12.2 µM (inactive) | GI50 (KM12): 5.15 µM (inactive) | GI50 (LOX IMVI): 3.35 µM (inactive) | GI50 (M14): 5.02 µM (inactive) | GI50 (MCF7): 12.4 µM (inactive) | GI50 (MDA-MB-231): 4.16 µM (inactive) | GI50 (MDA-MB-435): 7.62 µM (inactive) | GI50 (MDA-N): 5.78 µM (inactive) | GI50 (MOLT-4): 3.52 µM (inactive) | GI50 (Malme-3M): 10.3 µM (inactive) | GI50 (NCI-H226): 11 µM (inactive) | GI50 (NCI-H23): 6.27 µM (inactive) | GI50 (NCI-H460): 5.14 µM (inactive) | GI50 (NCI-H522): 2.84 µM (inactive) | GI50 (NCI/ADR-RES): 7.36 µM (inactive) | GI50 (OVCAR-3): 3.01 µM (inactive) | GI50 (OVCAR-4): 6.79 µM (inactive) | GI50 (OVCAR-5): 10.8 µM (inactive) | GI50 (OVCAR-8): 3.61 µM (inactive) | GI50 (PC-3): 5.02 µM (inactive) | GI50 (RPMI-8226): 11.3 µM (inactive) | GI50 (RXF 393): 5.93 µM (inactive) | GI50 (SF-268): 3.85 µM (inactive) | GI50 (SF-295): 6.27 µM (inactive) | GI50 (SF-539): 14.9 µM (inactive) | GI50 (SK-MEL-28): 12.1 µM (inactive) | GI50 (SK-MEL-2): 8.02 µM (inactive) | GI50 (SK-MEL-5): 6.75 µM (inactive) | GI50 (SK-OV-3): 4 µM (inactive) | GI50 (SN12C): 4.82 µM (inactive) | GI50 (SNB-19): 7.98 µM (inactive) | GI50 (SNB-75): 8.15 µM (inactive) | GI50 (SR): 26.2 µM (inactive) | GI50 (SW-620): 5.48 µM (inactive) | GI50 (T47D): 8.05 µM (inactive) | GI50 (TK-10): 8.36 µM (inactive) | GI50 (U-251): 2.9 µM (inactive) | GI50 (UACC-257): 15.3 µM (inactive) | GI50 (UACC-62): 7.78 µM (inactive) | GI50 (UO-31): 3.43 µM (inactive)
